Measurements taken from PubChem BioAssay (NCI).
In brackets after ≈: the same amount, converted by molar mass.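 A five-concentration, 48-hour dose response in 96-well plates underlies each endpoint, interpolated linearly between surrounding concentrations. At the GI50, growth is halved. TGI is the concentration that stops growth completely.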

What was measured:
Test in all cases: growth of human tumour cells (NCI), 48 h
786-0 renal = test system: 786-0 renal
HOP-92 NSCLC = test system: HOP-92 NSCLC
MDA-N = test system: MDA-N
OVCAR-5 ovarian = test system: OVCAR-5 ovarian
RXF 393 renal = test system: RXF 393 renal
SW-620 colon = test system: SW-620 colon
U251 CNS = test system: U251 CNS
UACC-62 melanoma = test system: UACC-62 melanoma
SR leukemia = test system: SR leukemia
M19-MEL melanoma = test system: M19-MEL melanoma
SNB-78 CNS = test system: SNB-78 CNS

SMILES	TGI (786-0 renal) [µM]	TGI (HOP-92 NSCLC) [µM]	TGI (MDA-N)	TGI (OVCAR-5 ovarian)	TGI (RXF 393 renal)	TGI (SW-620 colon)	TGI (U251 CNS)	TGI (UACC-62 melanoma)	TGI (SR leukemia)	TGI (M19-MEL melanoma) [µM]	TGI (SNB-78 CNS) [µM]	GI50 (HOP-92 NSCLC) [µM]	GI50 (SNB-78 CNS) [µM]	GI50 (SR leukemia)	GI50 (OVCAR-5 ovarian)	GI50 (RXF 393 renal)	GI50 (SW-620 colon)	GI50 (U251 CNS)	GI50 (UACC-62 melanoma)	GI50 (MDA-N) [µg/mL]
Nc1nc(N)c2c(n1)NC(c1ccccc1)CC(/C=C/c1ccc(Cl)cc1)=N2 (stereo not given)	12	18.2	24.4 µM	32.5 µM	16.7 µM	26.8 µM	> 100 µM	25 µM												
CN(CCCNC(=O)c1cn(C)c2c1ccc1cc(Cl)c(Cl)cc12)CCCNC(=O)c1cn(C)c2c1ccc1cc(Cl)c(Cl)cc12	49.4	33.4	36 µM	31.2 µM	16.7 µM	19.1 µM	11.4 µM	31.7 µM	16.5 µM											
CC(Sc1ccccc1)C(CO)(CO)[N+](=O)[O-] (stereo not given)				36.9 µM	31.3 µM	28.4 µM	26 µM	29.9 µM	5.72 µM	30.9	66.7									
O=S(=O)(/N=C(\NO)Nc1ccc(Cl)cc1)c1ccc(S(=O)(=O)c2ccccc2)s1	> 100	31.3		63.7 µM	87.7 µM	> 100 µM	60.3 µM	33.7 µM												
CN(C)CCn1c(=O)c2ccc3c4c(nn3CCN(C)C)c3cc(N)ccc3n(c1=O)c24	0.0573		0.0752 µM	0.111 µM	0.173 µM	1.87 µM	3.39 µM	0.281 µM	> 42.5 µM											
N[C@H]1CCN(c2c(F)cc3c(=O)c(C(=O)O)cn4c3c2Oc2cc3c(ccc5ccccc53)cc2-4)C1	> 100	6.29	> 100 µM	> 100 µM	> 100 µM	> 100 µM	5.02 µM	> 100 µM	> 100 µM											
O=CN1CCN(C(=O)c2cc(Cl)cc(Cl)c2)C1=S	15.7	31.9	35.4 µM	44.2 µM	30.6 µM	49.3 µM	36 µM	31.2 µM												
O=[N+]([O-])c1ccc2c(c1)c(N=NC(=S)NC1CCCCC1)c(O)n2CN1CCOCC1	18.6	12.9	20 µM	23.8 µM	29 µM	> 100 µM	17.3 µM	20.5 µM	21.5 µM											
C/C(=N\NC(=O)c1cccnc1)c1cccc(/C(C)=N/NC(=O)c2cccnc2)n1		59.1		8.28 µM		> 100 µM	> 100 µM	5.7 µM	> 100 µM	68.6	97.9	7.41	7.53	4.56 µM						
CS(=O)(=O)c1nc(-c2cc3c(c(S(C)(=O)=O)n2)CCCC3)cc2c1CCCC2	> 100		> 100 µM	> 100 µM	> 74.9 µM	> 100 µM	> 100 µM	> 62.3 µM	> 100 µM											
CC(=O)N(C)c1ccc2c(ccc[n+]2[O-])c1[N+](=O)[O-]	> 100			> 100 µM	> 100 µM	> 100 µM	> 100 µM	> 100 µM		> 100	> 100									
COc1ccc(N=c2ssc(C(=S)Nc3ccc(OC)cc3)c2S)cc1	> 100	> 100	> 100 µM	> 100 µM	> 100 µM	> 100 µM	> 100 µM	> 100 µM	> 100 µM											
CCC(C)C1NC(=O)C2CCCN2C(=O)C(CC2CO2)OC(=O)CCNC(=O)C(C)N(C)C(=O)C(C(C)C)N(C)C1=O (stereo not given)		> 100		> 100 µM	> 100 µM	> 100 µM	> 100 µM	2.15 µM												
C[C@]12CC[C@@H]3c4ccccc4CC[C@H]3[C@@H]1CC[C@@H]2O	> 100				> 100 µM	> 100 µM	> 100 µM	> 100 µM	> 100 µM	> 100	> 100									
CN1C2CCC1C(C(O)c1ccccc1[N+](=O)[O-])C(=O)C2 (stereo not given)	> 100		75.7 µM	> 100 µM		> 100 µM	> 100 µM	> 100 µM												
Nc1ccc2c(c1)C(=O)N(O)C2=O				> 100 µM	> 100 µM	> 100 µM	> 100 µM	> 100 µM	> 100 µM	> 100	> 100									
NCCNc1nc(N2CCCC2)c2nc(Cl)c(NCc3ccccc3)nc2n1	3.08	6.1	3.1 µM	7.88 µM	2.91 µM	4.73 µM	2.87 µM	3.19 µM	2.95 µM											
OCCOCn1cc(Cn2ncc3c(SCc4ccccc4)ncnc32)nn1	> 100	> 100	37 µM	> 100 µM	> 100 µM	> 100 µM	> 100 µM	> 100 µM												
COC(=O)C1C(C)N1C (stereo not given)		> 100			> 100 µM	> 100 µM	> 100 µM	> 100 µM		> 100	> 100									
Clc1ccc(Nc2nc(Cl)c3[nH]cnc3n2)cc1Cl	30.8	53.4	> 100 µM	> 100 µM	81.2 µM	> 100 µM	> 100 µM	> 100 µM	55.7 µM											
COc1ccc(/C=C(\C#N)c2nc(N)nc(N3N=C(C)CC3(C)C)n2)c(O)c1	30	58.5		34.2 µM	33.4 µM		94.1 µM	34.6 µM	35.7 µM											
COc1c2c(cc3c1C(O)N1CC[C@]34[C@H]3O[C@H]3[C@H](OC)C[C@@H]14)OCO2 (stereo not given in full)	> 100	> 100	67.8 µM	> 100 µM	> 100 µM	> 100 µM	> 100 µM	> 100 µM	88.6 µM											
C[C@]12CCC(=O)C=C1CC[C@@H]1[C@@H]2[C@@H](O)C[C@@]2(C)[C@H]1CC[C@]2(O)C(=O)CO	> 100	> 100	> 100 µM	> 100 µM	> 100 µM	> 100 µM	> 100 µM	> 100 µM	> 100 µM											
O=S(=O)(O)c1cccc2c(N=Nc3c(O)ccc4ccccc34)cccc12	> 100	> 100	> 100 µM	> 100 µM	> 100 µM	> 100 µM	> 100 µM	> 100 µM	> 100 µM											
[O-][N+](CCO)(CCO)c1ncnc2nc[nH]c12	> 100		> 100 µM	> 100 µM	> 100 µM	> 100 µM	> 100 µM	> 100 µM	> 100 µM											
Nc1ccccc1N/C(=C\C(=O)C(Cl)(Cl)Cl)c1ccccc1	54.3	41.8	39 µM	41.5 µM	53.4 µM	> 100 µM	32 µM	45.3 µM	> 100 µM											
O=C(CCN1CC2CCC(CC2)C1)c1cccs1	20.9	12.6	34.7 µM	33.1 µM	37 µM	12.2 µM	33.5 µM	31.9 µM	24.6 µM											
O=[n+]1c2c(n([O-])c3ccccc31)-c1cccc3cccc-2c13		> 100	> 100 µM		> 100 µM	> 100 µM	> 100 µM		> 100 µM											
O=C1c2cc3c(cc2-c2c1c1ccc(Cl)cc1c(=O)n2C[C@H](O)[C@@H](O)[C@H](O)CO)OCO3		0.666		1.29 µM	0.258 µM	0.325 µM	0.0505 µM	0.111 µM				0.069			0.0524 µM	0.0536 µM	0.0163 µM	< 0.01 µM	0.0129 µM	
CC1(C)CC(=O)C2=C(C1)NC(SSC1=C(C#N)C(c3ccc(F)cc3)C3=C(CC(C)(C)CC3=O)N1)=C(C#N)C2c1ccc(F)cc1 (stereo not given)			48.4 µg/mL	> 150 µg/mL	41.1 µg/mL	25 µg/mL	15 µg/mL	43.9 µg/mL	> 150 µg/mL					48.9 µg/mL	106 µg/mL	21.4 µg/mL	6.93 µg/mL	15 µg/mL	23.7 µg/mL	27.2 (≈ 41.5 µM)
